Experimental findings from PubChem BioAssay (NCI) are described below.

Common to all, as to experiment: NCI tumour cell line growth inhibition, 48 h
Test [1] has as its system ACHN renal.
For test [2], the system named is COLO 205 colon.
Test [3] relates to HCC-2998 colon.
Test [4] deals with HOP-62 NSCLC.
Test [5] relates to K-562 leukemia.
The subject of test [6] is OVCAR-4 ovarian.
Test [7] relates to SF-539 CNS.
Test [8] has as its system SK-MEL-2 melanoma.
The subject of test [9] is SNB-19 CNS.

SMILES strings stand for the structures.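 Results reflect a 48-hour exposure of cells in 96-well plates to compound at five concentrations. The concentration for 50% growth inhibition is given as GI50. At the TGI there is no net growth.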 A value given as a limit tells only on which side of the number the result lay.

Regarding `CC(=O)N[C@H](C(=O)N[C@@H](CCCNC(=N)N)C(=O)N[C@@H](CCCCN)C(=O)N[C@@H](CCCNC(=N)N)C(=O)N[C@]1(C)CCCCCC/C=C\CCC[C@@](C)(C(=O)N[C@@H](CCCNC(=N)N)C(=O)N[C@@H](CCC(=O)O)C(=O)N[C@@H](CC(C)C)C(=O)N[C@H](C(=O)N[C@@H](CCC(=O)O)C(N)=O)C(C)C)NC(=O)[C@H](CCC(N)=O)NC(=O)[C@H](CC(C)C)NC(=O)[C@H](CC(C)C)NC(=O)[C@H](CCCNC(=N)N)NC(=O)[C@H](CCCNC(=N)N)NC(=O)[C@H](CC(C)C)NC1=O)C(C)C`, the GI50 in test [1] is 8.06 µM; in test [2], 1.3 µM; in test [3] it was 4.65 µM; in test [4], 2.35 µM; in [5] it was 5.42 µM; in test [6] it was 1.57 µM. For the same molecule, the results for the GI50 in test [7], in test [8] and in test [9] were 1.97 µM, 7.59 µM and 10.3 µM, respectively. The TGI in test [1] was determined as 28.1 µM; in [2] it was 4.54 µM; in test [3] it was 46.6 µM; in test [4] it was 22.5 µM; in [5] it was 21.6 µM; in test [6], 8.02 µM. The TGI is 15.8 µM in test [7], above 50 µM in test [8] and above 50 µM in test [9].
With `COc1ccccc1-c1cc(=O)c2ccc(C)nc2[nH]1`, the TGI in test [1], in [2], in test [3], in [4], in test [5] and in test [6] was above 100 µM throughout. The TGI in test [7], in [8] and in test [9] was above 100 µM throughout.
For the molecule `Cl[Si]1(Cl)Oc2ccccc2O[Si](Cl)(Cl)Oc2ccccc2O1`, the TGI is above 100 µM in test [1]; 59.7 µM in [2]; 53.5 µM in test [3]; above 100 µM in test [4]; 40.9 µM in test [5]; 24.7 µM in test [6]. In addition, the TGI was 97.9 µM in test [7], 73.8 µM in [8] and above 100 µM in [9].
With `OC(c1ccc(Br)cc1)(c1cccs1)C1CC1` (stereo not given), the TGI was 76.3 µM in test [1]; 36.6 µM in test [2]; 55.6 µM in test [3]; 47.2 µM in test [4]; above 100 µM in [5]; 66.7 µM in test [6]. For the same molecule, the TGI in [7] is 45.9 µM; in test [8], 40.4 µM; in [9] it was above 100 µM.
In the case of `Cn1cc(-c2csc(-c3cn(C)c4ccccc34)n2)c2cnccc21`, the GI50 in [1] is 1.8 µM; in test [3], 1.26 µM; in test [4] it was 1.67 µM; in test [6] it was 1.46 µM; in test [7], 1.75 µM; in test [8] it was 2 µM. The GI50 in [9] is 1.76 µM. For the same molecule, the TGI in [1] came out at 3.19 µM; in test [3] it was 2.6 µM; in test [4] it was 3.85 µM; in [6], 11.1 µM; in [7], 3.2 µM; in test [8] it was 3.7 µM. The same molecule showed a TGI in test [9] of 3.28 µM.
Take `CC(=O)[O-].CC(=O)[O-].CC(=O)[O-].CC(=O)[O-].[Mo+2].[Mo+2]`: the GI50 in test [1], in test [2], in test [3], in test [4], in test [5] and in test [6] was above 100 µM throughout. In addition, the GI50 in test [7], in test [8] and in test [9] was above 100 µM each time. The TGI in test [1], in test [2], in [3], in [4], in test [5] and in test [6] was above 100 µM each time. In addition, the TGI in test [7], in test [8] and in test [9] was above 100 µM in each case.
Turning to `C=CCC1[C@@H](C(C)(C)C(C(C)=O)C(=O)C(=O)OC)OC(C(C)(C)C)N1C(=O)OC` (stereo not given in full), the TGI in test [1], in test [2], in test [3], in test [4], in [5] and in test [6] was above 100 µM in each case. The TGI in test [7], in [8] and in [9] was above 100 µM each time.
Turning to `CC1(C)OC2COC3(CNO)OC(C)(C)OC3C2O1` (stereo not given), the TGI in [1], in test [2], in test [3], in [4], in test [5] and in [6] was above 100 µM throughout. The TGI in [7], in test [8] and in test [9] was above 100 µM throughout.
As to `COc1c(Br)cc(Br)c(OC)c1-c1[nH]c(Br)c(Br)c1Br`, the TGI turned out to be 17.1 µM in test [1]; 28 µM in test [2]; 19.2 µM in [3]; 21.3 µM in [4]; 15 µM in test [5]; 16.3 µM in test [6]. The values for the TGI in test [7], in test [8] and in test [9] were 21.8 µM, 13.7 µM and above 100 µM, respectively.
As to `CCOC(=O)c1ccc(N[C@@H]2c3cc4c(cc3C(C3=CC(=O)C(=O)C(OC)=C3)[C@H]3C(=O)OCC32)OCO4)cc1` (stereo not given in full), the TGI in test [1] is 3.86 µM; in test [2], 28.3 µM; in test [3] it was 10.9 µM; in test [4], 1.66 µM; in test [5] it was above 69.4 µM; in test [6], above 83 µM. Also, the TGI in test [7] came to 4.56 µM; in [8], 6.08 µM; in test [9], 42 µM.
`C=CCOC(=O)CC[N+]1=CCC(c2ccccc2)(c2ccccc2)O1`: the TGI in test [1], in test [2], in test [3], in test [4], in test [5] and in [6] was above 100 µM throughout. The TGI in test [7], in [8] and in test [9] was above 100 µM throughout.
In the case of `CSc1c(C)c(C)nn1-c1ccccc1`, the TGI in test [1], in test [2], in test [3], in test [5], in test [6] and in [7] was above 100 µM each time. For the same molecule, the TGI in [8] and in test [9] was above 100 µM throughout.
